Assay results published in patent publication US10294236B2, “Compounds as rearranged during transfection (RET) inhibitors” (GLAXOSMITHKLINE INTELLECTUAL PROPERTY DEVELOPMENT LIMITED, priority 2014, dated 2019).

How the values were obtained:
[1] = Physical stability of the crystalline form on exposure to humidity; format: physicochemical; settings: exposed to 75% RH for five days
Experimental: A suspension of 1-(2-(4-ethoxy-6-oxo-1,6-dihydropyridin-3-yl)-4-methylpyrimidin-5-yl)-3-(5-(1,1,1-trifluoro-2-methylpropan-2-yl)isoxazol-3-yl)urea (493.5 mg) in 12.5 mL of acetone was stirred overnight while cycling the temperature between 40° C. and 5° C. Seeds of Compound A free base anhydrate were added at 5° C. The solids were isolated by vacuum filtration and dried overnight in a vacuum oven at 40° C. to give the title compound as a crystalline solid.

[2] = target: T1, Human RET kinase cytoplasmic domain (Homo sapiens, UniProt P07949); assay: RET kinase enzymatic assay; format: biochemical
T1 construct: made in house
T1 sequence (P07949 658-1114): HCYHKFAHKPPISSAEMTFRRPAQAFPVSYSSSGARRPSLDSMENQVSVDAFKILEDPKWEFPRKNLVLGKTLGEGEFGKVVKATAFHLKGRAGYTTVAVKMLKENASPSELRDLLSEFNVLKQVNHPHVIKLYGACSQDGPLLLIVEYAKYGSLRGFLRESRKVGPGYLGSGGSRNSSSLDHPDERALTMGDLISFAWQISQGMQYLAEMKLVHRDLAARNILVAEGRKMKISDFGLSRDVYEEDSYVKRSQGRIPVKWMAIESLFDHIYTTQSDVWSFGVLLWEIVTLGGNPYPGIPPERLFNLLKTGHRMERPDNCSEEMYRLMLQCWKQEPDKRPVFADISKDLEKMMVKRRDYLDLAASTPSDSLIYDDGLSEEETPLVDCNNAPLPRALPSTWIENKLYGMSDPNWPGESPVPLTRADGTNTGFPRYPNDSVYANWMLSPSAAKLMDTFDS
Summary of the method: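 GST-RET, 0.2 nM in 2× enzyme mix (HEPES, CHAPS, BSA, DTT), preincubated with inhibitor 30 min at 23 °C. Reaction for 1 h at 23 °C after adding 2× substrate mix: 20 μM ATP, 20 mM MgCl2, 1 μM biotinylated peptide. Single wells per concentration; IC50 from sigmoidal dose-response fit.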

| physical stability [1] | IC50 [2] | Compound |
| --- | --- | --- |
| physically stable | – | CCOc1cc(=O)[nH]cc1-c1ncc(NC(=O)Nc2cc(C(C)(C)C(F)(F)F)on2)c(C)n1 [Compound A free base anhydrate, 1-(2-(4-Ethoxy-6-oxo-1,6-dihydropyridin-3-yl)-4-methylpyrimidin-5-yl)-3-(5-(1,1,1-trifluoro-2-methylpropan-2-yl)isoxazol-3-yl)urea] |
| – | < 100 nM | CCOc1cc(-c2ccc(NC(=O)Nc3ccc(OC(C)(C)C#N)c(C(F)(F)F)c3)c(F)c2)c[nH]c1=O [Example 83] |
| – | < 100 nM | CCOc1cc(=O)[nH]cc1-c1ncc(NC(=O)Nc2ccc(C(C)(C)O)c(C(F)(F)F)c2)c(C)n1 [Example 51, 1-(2-(4-Ethoxy-6-oxo-1,6-dihydropyridin-3-yl)-4-methylpyrimidin-5-yl)-3-(4-(2-hydroxypropan-2-yl)-3-(trifluoromethyl)phenyl)urea] |
| – | < 100 nM | CCOc1cc(-c2cnc(NC(=O)Nc3cc(C(C)(C)C(F)(F)F)on3)c(C)n2)c[nH]c1=O [Example 16, 1-(5-(5-Ethoxy-6-oxo-1,6-dihydropyridin-3-yl)-3-methylpyrazin-2-yl)-3-(5-(1,1,1-trifluoro-2-methylpropan-2-yl)isoxazol-3-yl)urea] |
| – | < 100 nM | CCOc1cc(=O)[nH]cc1-c1ncc(NC(=O)Nc2ccc(C3(CO)CC3)c(C(F)(F)F)c2)c(C)n1 [Example 88] |
